# Test results published in patent EP0237472A2, “An ameliorating agent for pulmonary fibrosis and the use thereof” (Zyma SA, priority 1986, dated 1987).
# Assays:
# [1] = test system: female Sprague-Dawley rats; experiment: CCl4-induced lung fibrosis (lung collagen accumulation) in rats; assay type: in vivo
# Method: The animals used were female Sprague-Dawley rats fed on a commercial diet (Hankkija Cy, Helsinki, Finland). Forty rats were divided into four groups of 10, the first serving as a control group. In order to investigate the effect of Compound 4 on lung collagen accumulation, the injury was induced by injecting carbon tetrachloride (CC14) intraperitoneally at doses of 0.1 ml/100 g body weight (diluted with an equal volume of paraffin oil) twice a week for 40 days. The third group received simultaneous doses of CCl4 and Compound 4. Compound 4 was suspended in arabic gum and given by gastric intubation at doses of 100 mg/kg body weight 5 times weekly for 40 days. The fourth group received only Compound 4. Two animals both in the CC14 group died during the experiment.
# At the end of the experiment, the rats were anaesthetized with ether, weighed, and decapitated. The lungs were rapidly removed, weighed and the right one of them stored at -70°C until assayed. Tissue specimens for the determination of hydroxyproline and total protein were homogenized with an Ultra-Turrax homogenizer at 0°C in 0.5 M acetic acid (5 ml/g of tissue), dialyzed against 0.5 M acetic acid, and hydrolyzed in 6 M HC1 at 120°C overnight. Tissue hydroxyproline was assayed by the method of Kivirikko et al. and tissue total protein using the a-amino nitrogen method of Rubinstein and Pryce.
# The left lung was fixed by slowly injecting a 4% formaldehyde and 1% glutaraldehyde solution into the main bronchus with the 1 ml syringe under magnifying lens control. Inflation of the lungs with fixative was continued until the pleura was smooth and the organ appeared to be filled. The bronchus was then left unclosed and the lungs were placed in the same solution until fixed. When the bronchus is left unclosed, the human lungs, at least, seem to assume a fairly constant volume during fixation, a little greater than the functional residual capacity. The lungs were then sliced sagittally and the slices embedded in paraffin. Sections were cut at 5 µm and stained with heamatoxylin-eosin, Pearl's iron, van Gieson's and Verhoeff's elastic stains.
# [2] = acute oral toxicity (LD50) to male mice; details: mouse, in vivo
# [3] = CCl4 + Compound 4 (group M+I), CCl4 0.1 ml/100 g i.p. twice a week, Compound 4 100 mg/kg orally 5 times weekly, 40 days
# [4] = Compound 4 alone (group M), 100 mg/kg by gastric intubation 5 times weekly for 40 days, no CCl4
compound,measurement,setting,value
CC(C)OC(=O)C(C(=O)OC(C)C)=C1SC=CS1 [Compound 4],Lung relative protein (mg/g of lung weight),[1]; [3],20.61±2.05 mg/g of lung weight
same,Lung total protein (mg/lungs),[1]; [3],40.07±6.05 mg/lungs
same,Lung weight/ body weight (%),[1]; [3],0.89±0.17%
same,total hydroxyproline content of the lungs,"[1]; CCl4 + Compound 4, 100 mg/kg orally, 40 days (Figure 1)",normalized the values
same,foci of necrotic alveolar walls,"[1]; CCl4 + Compound 4, histology",All the lungs showed some foci of necrotic alveolar walls
same,interstitial fibrosis,"[1]; CCl4 + Compound 4 compared with CCl4-induced rats without Compound 4, histology",less interstitial fibrosis
same,Lung relative protein (mg/g of lung weight),[1]; [4],22.20±2.76 mg/g of lung weight
same,Lung total protein (mg/lungs),[1]; [4],38.31±4.90 mg/lungs
same,Lung weight/ body weight (%),[1]; [4],0.81±0.12%
same,lungs exhibiting a fairly normal alveolar pattern,"[1]; rats which received CCl4 and Compound 4, histology",Five out of the nine
same,lungs showing variable evidence of inflammatory reaction with minimal oedema,"[1]; rats which received CCl4 and Compound 4, nine lungs, histology",four
same,alveolar pattern in the lungs,"[1]; ten rats which received Compound 4 alone, histology",normal
CCOC(=O)C(C(=O)OCC)=C1SC=CS1 [Compound 2],LD50,[2],4900 mg/kg
CCCCOC(=O)C(C(=O)OCCCC)=C1SC=CS1 [Compound 5],LD50,[2],> 6000 mg/kg
CCCOC(=O)C(C(=O)OCCC)=C1SC=CS1 [Compound 3],LD50,[2],> 6000 mg/kg
COC(=O)C(C(=O)OCC(C)C)=C1SC=CS1 [Compound 8],LD50,[2],5800 mg/kg
CCOC(=O)C(C(=O)OC(C)C)=C1SC=CS1 [Compound 7],LD50,[2],2700 mg/kg
COC(=O)C(C(=O)OC)=C1SC=CS1 [Compound 1],LD50,[2],> 6000 mg/kg
CC(C)COC(=O)C(C(=O)OCC(C)C)=C1SC=CS1 [Compound 6],LD50,[2],4700 mg/kg
